Measurements as given in US20140094370A1, “FORMULATION COMPONENT” (SYNGENTA LIMITED, priority 2011, published 2014).

How the values were obtained:
[1] = system: Polygonum convolvulus (POLCO), Brachiaria platyphylla (BRAPL), Digitaria sanguinalis (DIGSA) and Amaranthus tuberculatus (AMATU); experiment: Glasshouse herbicide efficacy test of mesotrione compositions with adjuvant against four weed species; assay type: in vivo
Procedure: The aromatic ester bis-2-ethylhexyl phthalate was tested as an adjuvant in compositions of mesotrione, in a glasshouse against four weed species. An agrochemical composition was prepared containing 0.5% v/v of the adjuvant in a track sprayer and was applied at a volume of 200 liters per hectare. Mesotrione was applied at either 60 or 120 grams per hectare. The adjuvant oils were emulsified using a small amount of the surfactant Pluronic® PE 10500, which was present in the composition at a concentration of 0.02% v/v. The weed species and their growth stage at spraying were Polygonum convolvulus (POLCO; growth stage 13), Brachiaria platyphylla (BRAPL; growth stage 13)
Digitaria sanguinalis (DIGSA; growth stage 13) and Amaranthus tuberculatus (AMATU; growth stage 13).
Each spray test was replicated three times. The efficacy of the herbicide was assessed visually and expressed as a percentage of the leaf area killed. Samples were assessed at time periods of 7, 14 and 21 days following application. The results shown below in Table 10 are mean averages over the two rates of mesotrione, three replicates, four weed species and the three assessment timings, and are compared to the efficacy of mesotrione in the absence of adjuvant and mesotrione plus the commercial tank mix adjuvant Turbocharge® (applied at 0.5% v/v).

[2] = system: Chenopodium album (CHEAL), Abutilon theophrasti (ABUTH), Setaria viridis (SETVI) and Xanthium strumarium (XANST); experiment: Glasshouse herbicide efficacy test of fomesafen compositions with adjuvant against four weed species; assay type: in vivo; settings: mean over fomesafen 60 and 120 g/ha, three replicates, four weed species, 2, 7 and 14 days after application; adjuvant 0.5% v/v; 200 liters per hectare
Procedure: The aromatic ester bis-2-ethylhexyl phthalate was tested as an adjuvant in compositions of fomesafen, in a glasshouse against four weed species. An agrochemical composition was prepared containing 0.5% v/v of the adjuvant in a track sprayer and was applied at a volume of 200 liters per hectare. Fomesafen was applied at a rate of either 60 or 120 grams per hectare. The adjuvant oils were emulsified using a small amount of the surfactant Pluronic® PE 10500, which was present in the composition at a concentration of 0.02% v/v. The weed species and their growth stage at spraying were Chenopodium album (CHEAL; growth stage 14), Abutilon theophrasti (ABUTH; growth stage 12), Setaria viridis (SETVI; growth stage 13), and Xanthium strumarium (XANST; growth stage 12).
Each spray test was replicated three times. The efficacy of the herbicide was assessed visually and expressed as a percentage of the leaf area killed. Samples were assessed at time periods of 2, 7 and 14 days following application. The results shown below in Table 11 are mean averages over the two rates of fomesafen, three replicates, four weed species and the three assessment timings, and are compared to the efficacy of fomesafen without adjuvant and fomesafen with the commercially available adjuvant Turbocharge® (applied at 0.5% v/v).

Question: Which “Adjuvant effect on efficacy of the herbicide (in words)” value ([1]; adjuvant 0.5% v/v with mesotrione, versus mesotrione without adjuvant) does the source give for `CCCCC(CC)COC(=O)c1ccccc1C(=O)OCC(CC)CCCC` (stereo not drawn) [bis-2-ethylhexylphthalate, Bis(2-ethylhexyl) phthalate] here?
Answer: The value was “increases the efficacy of the herbicide mesotrione”.

Question: For `CS(=O)(=O)NC(=O)c1cc(Oc2ccc(C(F)(F)F)cc2Cl)ccc1[N+](=O)[O-]` [Fomesafen], which “Mean percentage kill (percentage of the leaf area killed), mean across species” value [2] is on record?
Answer: The value was 14.3 C %.

Question: `CS(=O)(=O)c1ccc(C(=O)C2C(=O)CCCC2=O)c([N+](=O)[O-])c1` [Mesotrione] was tested. Which “Mean percentage kill (percentage of the leaf area killed), mean across species” value ([1]; mean over mesotrione 60 and 120 g/ha, three replicates, four weed species, 7, 14 and 21 days after application, adjuvant 0.5% v/v, 200 liters per hectare) did it give?
Answer: Its value is 49.6 B %.
